From US8138159B2, “Composition for inhibiting function of human Flt3” (Takara Bio Inc., priority 2003, dated 2012)

Legend:
Assay type in all cases: cell-based, human
[1] = system: MV4-11 (ITD mutation) cells; test: growth inhibition by siRNA3 in combination with kinase inhibitor AG1295, WST-1 (Example 4); conditions: siRNA3 alone, 1.2 μM at electroporation, 0 μM AG1295, 72 hours
Procedure: The growth inhibitory activity of treatment with a combination of the composition (synthesized siRNA3) of the present invention and a kinase inhibitor on MV4-11 (ITD mutation) cells was examined. The synthesized siRNA3 used was the same as in item (1) of Example 1 above. As the kinase inhibitor, AG1295 (manufactured by CALBIOCHEM) having high specificity to ITD mutation cells was used.
In the same manner as in item (2) of Example 1 above, MV4-11 cells were cultured at 37° C. for 24 hours in a medium obtained by supplementing 10% by volume fetal bovine serum (FBS) to an RPMI 1640 medium (manufactured by TAKARA BIO INC.) (referred to hereinafter as a culture medium) in the presence of 5% by volume CO2. Then, the MV4-11 cells (1×10^6 cells/ml) suspended in Opti-MEM (trade name, manufactured by Invitrogen) were transferred to a cuvette (manufactured by BIO RAD; gap of 4 mm), and siRNA3 was added to the cuvette so as to give a final concentration of 1.2 μM. Then, the cuvette was set in Gene Pulser Xcell (trade name, manufactured by BIO RAD) and thereafter pulsed with electric field intensity of 650 V/cm for 25 msec. Then, the suspension of the cells in the cuvette was added to, and suspended in, a 4-fold excess volume of the culture medium and dispensed onto a 96-well plate so as to give an amount of 100 μl/well. […]
4 mM AG1295 (dissolved in DMSO) was diluted with the above-mentioned culture medium to prepare AG1295 dilutions at a concentration of 10 μM, 6 μM and 0 μM (0.25% by volume DMSO) and added so as to give an amount of 100 μl/well to the 96-well plate prepared in step (2) above and cultured at 37° C. in the presence of 5% by volume CO2. Seventy-two hours after the culture was initiated, the growth activity of the cells was determined using Premix WST-1 reagent (trade name, manufactured by TAKARA BIO INC.) according to a manufacturer's protocol. Each experiment was carried out with n=6, and the mean was determined. The relative growth ratio (%) to the growth ability of the cells transfected with the control siRNA/0 μM AG1295 was determined. […]

[2] = system: MV4-11 (ITD mutation) cells; test: cell growth with siRNA alone or siRNA cocktail, WST-1 (Example 7); conditions: final concentration 1.2 μM, electroporation, 72 hours, n=6 mean
Procedure: As the composition of the present invention, a cocktail containing the synthesized siRNA1, 2 and 3, or siRNA3 alone, was examined for its growth inhibitory activity on MV4-11 (ITD mutation) cells. The synthesized siRNA1, 2 and 3 used were the same as in item (1) of Example 1 above.
A medium for MV4-11 cells used was the same as in item (2) of above Example 1, and the cells were cultured at 37° C. for 24 hours in an RPMI 1640 medium (manufactured by TAKARA BIO INC.) supplemented with 10% by volume fetal bovine serum (FBS) (referred to hereinafter as the culture medium) in the presence of 5% by volume CO2. Then, transfection of the cells with the synthesized siRNA3 was carried out in the following manner. […]
The cells added in an amount of 100 μl/well on the 96-well plate prepared in item (2) above were cultured at 37° C. in the presence of 5% by volume CO2. Seventy-two hours after the culture was initiated, the growth activity of the cells was determined using Premix WST-1 reagent (manufactured by TAKARA BIO INC.) according to a manufacturer's protocol. Each experiment was carried out with n=6, and the mean was determined. The relative growth ratio (%) as compared with the growth ability of the cells transfected with the control siRNA was determined.

[3] = system: Flt3 mRNA highly expressing cells; test: cell growth activity, Premix WST1 (Example 2), stated for highly expressing cells together; conditions: regardless of presence or absence of ITD mutation, read-out: IC50 (50% inhibition concentration) of growth

siRNA3: siRNA to juxtamembrane region (Flt3/JMD region) (target SEQ ID NO: 7); sense SEQ ID NO: 8, antisense SEQ ID NO: 9 (sense UAUGAAUAUGAUCUCAAAUTT; antisense AUUUGAGAUCAUAUUCAUATT; chemistry not given here)
growth inhibition as compared with the cells transfected with the control siRNA/0 μM AG1295 [1]: 83.7%
relative growth ratio (%) as compared with the cells transfected with the control siRNA (growth inhibition to) [2]: 46.5%
IC50 [3]: 10 nM
